Experimental data: patent publication US9585861B1, “Method for treating a cancer with a mixed ligand gold(III) complexes as anti-cancer agents” (KING FAHD UNIVERSITY OF PETROLEUM AND MINERALS, priority 2015, dated 2017)
Like-named read-outs stand apart in the source and are kept apart here.

How the values were obtained:
[1] = system: human gastric SGC7901 cancer cells; test: MTT assay, in vitro cytotoxicity / cell growth inhibition on SGC7901 cells; type: cell-based; conditions: for time dependent antiproliferative effect: 10 μM, 24 h and 72 h; for IC50: 72 h exposure, MTT
Experimental: (§1) Human gastric SGC7901 cancer and prostate PC3 cancer cell lines were provided by American Type Culture Collection (ATCC). Cells were cultured in Dulbecco's Modified Eagle Medium (DMEM) supplemented with 10% fetal calf serum (FCS), penicillin (100 kU L^−1) and streptomycin (0.1 g L^−1) at 37° C. in a 5% CO2-95% air atmosphere. MTT (3-(4,5-Dimethylthiazol-2-yl)-2,5-diphenyltetrazolium bromide, a yellow tetrazole) was purchased from Sigma Chemical Co, St. Louis, Mo., USA.
(§2) An MTT assay was used to obtain the number of living cells in the sample. Human gastric cancer SGC7901 and prostate cancer PC3 cells were seeded on 96-well plates at a predetermined optimal cell density, i.e. ca 6000 cells/100 μL per well in 96-well plates, to ensure exponential growth in the duration of the assay. After 24 h pre-incubation, the growth medium was replaced with the experimental medium containing the appropriate drug, using one of 1,2-diaminocyclohexane(1,3-propylenediamine)gold(III) chloride compounds 1, 2 and 3 or a control using water. Six duplicate wells were set up for each sample, and cells untreated with drug served as a control. In one set of culture plates, human gastric cancer SGC7901 and human prostate PC3 cells were treated with 10 μM compounds 1, 2 and 3 as the drug and the control (water) for 24, 48 and 72 h. In other sets, the compounds 1, 2 and 3 with different concentration, i.e. 10, 20 and 30 μM, were employed to determine the growth inhibitory effect for both PC3 and SGC7901 cells separately. After incubation, 10 μL MTT (6 g/L, Sigma) was added to each well and the incubation was continued for 4 h at 37° C. After removal of the medium, MTT stabilization solution [dimethylsulfoxide (DMSO):ethanol=1:1] was added to each well, and shaken for 10 min until all crystals were dissolved. Then, the optical density was detected in a micro plate reader at 550 nm wavelength using an Enzyme-Linked Immuno-Sorbent Assay (ELISA) reader. After being treated with the 1,2-diaminocyclohexane(1,3-propylenediamine)gold(III) chloride compounds 1, 2 and 3, the cell viability was examined by MTT assay. Each assay was performed in triplicate. […] These cells were treated with various concentrations of compounds 1, 2 and 3 for 24-72 h.
(§3) Human gastric SGC7901 cells and prostate PC3 cells were incubated with these compounds at fixed concentrations or with water as a control to assess the inhibitory effect on cell growth. […] The cell survival versus drug concentration is plotted. Cytotoxicity was evaluated in vitro with reference to the IC50 value. The half maximal inhibitory concentration (IC50) is a measure of the effectiveness of a compound to inhibit biological or biochemical functions. According to the FDA, IC50 represents the concentration of a drug/compound/complex that is required for 50% inhibition in vitro. It is evaluated from the survival curves as the concentration needed for a 50% reduction of survival. IC50 values are expressed in μM.
(§4) The in vitro cytotoxic effect of mixed ligand gold(III) diamine complexes against androgen-resistant prostate PC3 and human gastric SGC7901 cancer cells were studied using MTT assay. […] For that reason, we used different concentrations and a 3-day exposure protocol to determine the IC50 values for all three complexes. The in vitro cytotoxicity in terms of IC50 values of cisplatin for PC3 and SGC7901 cells was included for a comparison.

[2] = system: human prostate PC3 cancer cells; test: MTT assay, in vitro cytotoxicity / cell growth inhibition on PC3 cells; type: cell-based; conditions: for time dependent antiproliferative effect: 10 μM, 24 h and 72 h; for IC50: 72 h exposure, MTT
Experimental: as §1, §2, §3, §4

[3] = Cyclic voltammetry in reference phosphate buffer; type: physicochemical; conditions: 1.0 mM, phosphate buffer pH 7.4, platinum electrode, 50 mV/s, room temperature
Experimental: The electrochemical experiments performed at room temperature using a potentiostat (SP-300, BioLogic Science Instruments) controlled by EC-Lab v10.34 software package. The electrochemical experiments were performed at room temperature. All the measurements were performed on solutions deaerated by bubbling ultra-pure nitrogen for 15 min. The values of potential here reported were measured against a saturated calomel electrode (SCE). The cyclic voltammetry of the compounds 1, 2 and 3 were measured at scan rate of 50 mV/s on a reference buffer (40 mM phosphate, 4 mM NaCl, pH 7.4) using platinum as working electrode and graphite as a counter electrode with a concentration of 1.0 mM at room temperature. Ferrocene was used as pseudo reference to calibrate the working electrode. The couple Fe^III/II formal potential of ferrocene occur at E°′=+0.44 V (vs SCE) in 0.1 M Bu4NPF6 solution in acetonitrile which is similar to the report value under the same experimental condition [Hans J, Beckmann A, Krüger H J (1999) Eur. J. Inorg. Chem. 163-172—incorporated herein by reference in its entirety]. Conversion to values vs NHE was obtained upon adding +0.24 V to the corresponding SCE values.
The electrochemical behavior of compounds 1, 2 and 3 was investigated in a physiological environment through cyclic voltammetry (CV). […] Gold(III) complexes 1, 2 and 3 show one irreversible reduction process in which the controlled potential coulometry involves three electrons per mole. The occurrence of Au(III)/Au(O) reduction is visually indicated by the appearance of a thin gold layer deposited on the platinum electrode surface after exhaustive electrolysis (Ew, −0.7 V).

[4] = NMR stability in D2O and mixed DMSO-d6/D2O; type: physicochemical; conditions: DMSO-d6/D2O (v/v 2/1), room temperature, after 7 days
Experimental: Compounds 1, 2 and 3 were tested for their stability in water as well as mixed solvents of DMSO/water (2/1 v/v ratio) solution by ^13C and ^1H NMR. […] The hydroscopic nature of DMSO could unfortunately lead to stability issue [Ellson R, Stearns R, Mutz M, Brown C, Browning B, Harris D, Qureshi S. Shieh J, Wold D (2005) Comb. Chem. High Throughput Screen, 8:489-498—incorporated herein by reference in its entirety]. To investigate the structural stability of the compounds, NMR spectra of the compounds dissolved in D2O and mixed DMSO-d6/D2O (v/v: 2/1) solvents were obtained on immediate dissolution and latter at 24 h and after three days 72 h at room temperature in mixed DMSO-d6/D2O and at 37° C. in D2O . A minimum of 30 mg/mL of representative gold(III) compounds 1, 2 and 3 were subjected to ^1H and ^13C NMR spectra analysis followed by dissolution in D2O and DMSO-d6/D2O (v/v: 2/1, 1 mL). The duplicate samples were dissolved and immediately stored at room temperature and 37° C., respectively, and followed by determination of stability through NMR measurements for compounds 1, 2 and 3 overtime periods of 24 h and 72 h.
The NMR spectra of the complexes were obtained upon immediate dissolution to serve as reference spectra and later at 24 h and after 7 days at 37° C. in D2O and at room temperature in mixed DMSO-d6/D2O in order to determine their stability. […]

[5] = listed as complex 1, read-out: IC50 (concentration of sample required to reduce the cell growth of tumor cell line by 50%)
[6] = listed as complex 3, read-out: IC50 (concentration of sample required to reduce the cell growth of tumor cell line by 50%)
[7] = read-out: IC50 (concentration of sample required to reduce the cell growth of tumor cell line by 50%)

NC1CCCCC1N.NCCCN.[Au+3].[Cl-].[Cl-].[Cl-] (stereo not drawn) [Complex 1, cis-1,2-diaminocyclohexane(1,3-propylenediamine)gold(III) chloride]
time dependent antiproliferative effect ([1]; listed as complex 1): complex 3>complex 2>complex 1
IC50 [1, 5]: 10.8 µM
concentration dependent cell growth inhibition ([2]; 10 μM and 20 μM, 24 h): much better cell inhibition against PC3 cancer cell than complexes 3 and 2
time dependent antiproliferative effect ([2]; listed as complex 1): complex 3>complex 2>complex 1
IC50 [2, 5]: 9.5 µM
Peak potential Ep vs. NHE for reduction ([3]; listed as 1): 0.34 V

NC1CCCCC1N.NCCCN.[Au+3].[Cl-].[Cl-].[Cl-] [Complex 3, (S,S)-(+)-1,2-diaminocyclohexane(1,3-propylenediamine)gold(III) chloride]
time dependent antiproliferative effect [1]: better cell inhibition against both PC3 and SGC7901 cell lines than complexes 1 and 2
time dependent antiproliferative effect ([1]; listed as complex 3): complex 3>complex 2>complex 1
IC50 [1, 6]: 10.1 µM
time dependent antiproliferative effect [2]: better cell inhibition against both PC3 and SGC7901 cell lines than complexes 1 and 2
time dependent antiproliferative effect ([2]; listed as complex 3): complex 3>complex 2>complex 1
IC50 [2, 6]: 9.1 µM
dissociation of 1,3-propylenediamine [4]: approximately 50%
Peak potential Ep vs. NHE for reduction ([3]; listed as 3): 0.24 V

NC1CCCCC1N.NCCCN.[Au+3].[Cl-].[Cl-].[Cl-] (racemic) [Complex 2, trans-(±)-1,2-diaminocyclohexane(1,3-propylenediamine)gold(III) chloride]
time dependent antiproliferative effect [1]: complex 3>complex 2>complex 1
IC50 [1, 7]: 10.9 µM
time dependent antiproliferative effect [2]: complex 3>complex 2>complex 1
IC50 [2, 7]: 10.2 µM
Peak potential Ep vs. NHE for reduction [3]: 0.25 V

N.N.[Cl][Pt][Cl] [Cisplatin, reference compound]
IC50 [1, 7]: 7.3 µM
IC50 [2, 7]: 1.1 µM
